{"source": "patent US10047076B2", "about": "“Halogen-substituted compounds” (BAYER CROPSCIENCE AKTIENGESELLSCHAFT, priority 2014, dated 2018)", "key": {"Lucilia cuprina": {"tested_on": "Lucilia cuprina", "test": "Lucilia cuprina test", "format": "in vivo", "settings": "100 ppm, L1 larvae, after 2 days", "protocol": "(§1) Solvent: dimethyl sulphoxide\nAbout 20 L1 larvae of the Australian sheep blowfly (Lucilia cuprina) are transferred into a test vessel containing minced horsemeat and the active compound preparation of the desired concentration.\nAfter 2 days, the kill in % is determined."}, "Musca domestica": {"tested_on": "Musca domestica", "test": "Musca domestica test", "format": "in vivo", "settings": "100 ppm, adult houseflies, after 2 days", "from_the_text": "as §1\nVessels containing a sponge treated with sugar solution and the active compound preparation of the desired concentration are populated with 10 adult houseflies (Musca domestica)."}, "Boophilus microplus": {"tested_on": "Boophilus microplus", "test": "Boophilus microplus injection test", "format": "in vivo", "settings": "20 μg/animal, engorged adult female ticks, after 7 days", "protocol": "as §1\n1 μl of the active compound solution is injected into the abdomen of 5 engorged adult female cattle ticks (Boophilus microplus). The animals are transferred into dishes and kept in a climate-controlled room.\n(§2) Efficacy is assessed after 7 days by laying of fertile eggs. Eggs which are not visibly fertile are stored in a climate-controlled cabinet until the larvae hatch after about 42 days. An efficacy of 100% means that none of the ticks has laid any fertile eggs; 0% means that all the eggs are fertile."}, "Amblyomma hebraeum": {"tested_on": "Amblyomma hebraeum", "test": "Amblyomma hebaraeum test (AMBYHE), tick nymphs immersion", "format": "in vivo", "settings": "100 ppm, after 42 days", "protocol": "as §1\nTo produce a suitable active compound formulation, 10 mg of active compound are mixed with 0.5 ml of dimethyl sulphoxide, and the concentrate is diluted with water to the desired concentration.\nTick nymphs (Amblyomma hebraeum) are placed into perforated plastic beakers and immersed in the desired concentration for one minute. The ticks are transferred on filter paper into a Petri dish and stored in a climate-controlled cabinet."}, "Rhipicephalus sanguineus": {"tested_on": "Rhipicephalus sanguineus", "test": "Rhipicephalus sanguineus in vitro contact test with adult brown dog ticks", "format": "in vivo", "settings": "application rate 5 μg/cm^2 (500 g/ha), after 48 h, adult ticks dead or moribund", "protocol": "(§3) For the coating of the test tubes, 9 mg of active compound are first dissolved in 1 ml of acetone p.a. and then diluted to the desired concentration with acetone p.a. 250 μl of the solution are distributed homogeneously on the inner walls and the base of a 25 ml test tube by turning and rocking on an orbital shaker (rocking rotation at 30 rpm for 2 h). With 900 ppm active compound solution and internal surface 44.7 cm^2, given homogeneous distribution, an area-based dose of 5 μg/cm^2 is achieved.\nAfter the solvent has evaporated off, the tubes are populated with 5-10 adult dog ticks (Rhipicephalus sanguineus), sealed with a perforated plastic lid and incubated in a horizontal position in the dark at room temperature and ambient humidity. After 48 h, efficacy is determined. To this end, the ticks are knocked to the floor of the tube and incubated on a hotplate at 45-50° C. for not more than 5 min. Ticks which remain motionless on the floor or move in such an uncoordinated manner that they are unable to deliberately avoid the heat by climbing upwards are considered to be dead or moribund.\nAn efficacy of 100% means that all the ticks were dead or moribund. 0% efficacy means that none of the ticks had been harmed."}, "[1]": {"tested_on": "cattle ticks (Boophilus microplus) Parkhurst strain, SP-resistant", "test": "Boophilus microplus dip test", "format": "in vivo", "settings": "100 ppm, engorged adult female ticks, after 7 days", "protocol": "Test animals: cattle ticks (Boophilus microplus) Parkhurst strain, SP-resistant\nas §1\n10 mg of active compound are dissolved in 0.5 ml of dimethyl sulphoxide. For the purpose of producing a suitable formulation, the active compound solution is diluted with water to the concentration desired in each case.\nThis active compound preparation is pipetted into tubes. 8-10 engorged adult female cattle ticks (Boophilus microplus) are transferred into a further tube with holes. The tube is immersed into the active compound preparation, and all the ticks are completely wetted. After the liquid has run out, the ticks are transferred on filter discs into plastic dishes and stored in a climate-controlled room.\nas §2"}, "Spodoptera frugiperda": {"tested_on": "Spodoptera frugiperda", "test": "Spodoptera frugiperda spray test", "format": "in vivo", "settings": "100 g/ha, caterpillars on maize leaf discs, after 7 days", "from_the_text": "(§4) Solvent: 78.0 parts by weight of acetone"}, "Phaedon cochleariae": {"tested_on": "Phaedon cochleariae", "test": "Phaedon cochleariae spray test", "settings": "100 g/ha, larvae on Chinese cabbage leaf discs, after 7 days"}, "[2]": {"test": "log P determination by HPLC on reversed-phase column (C18), EEC Directive 79/831 Annex V.A8, acidic (formic acid)", "format": "physicochemical", "settings": "HPLC method a), acetonitrile/water with formic acid"}, "Ctenocephalides felis [3]": {"tested_on": "Ctenocephalides felis", "test": "Ctenocephalides felis oral test", "format": "in vivo", "settings": "100 ppm in citrated cattle blood, after 2 days", "from_the_text": "as §1\nDilution with citrated cattle blood gives the desired concentration.\nAbout 20 unfed adult cat fleas (Ctenocephalides felis) are placed into a chamber which is closed at the top and bottom with gauze. A metal cylinder whose bottom end is closed with parafilm is placed onto the chamber. The cylinder contains the blood/active compound preparation, which can be imbibed by the fleas through the parafilm membrane."}, "Tetranychus urticae [4]": {"tested_on": "Tetranychus urticae", "test": "Tetranychus urticae spray test, OP-resistant (bean plants)", "format": "in vivo", "settings": "20 ppm, after 7 days"}, "Ctenocephalides felis [5]": {"tested_on": "Ctenocephalides felis", "test": "Ctenocephalides felis in vitro contact test with adult cat fleas", "format": "in vivo", "settings": "application rate 5 μg/cm^2 (500 g/ha), after 48 h, adult cat fleas dead or moribund", "protocol": "as §3\nAfter the solvent has evaporated off, the tubes are populated with 5-10 adult cat fleas (Ctenocephalides felis), sealed with a perforated plastic lid and incubated in a horizontal position at room temperature and ambient humidity. After 48 h, efficacy is determined. To this end, the test tubes are stood upright and the fleas are knocked to the base of the tube. Fleas which remain motionless at the base or move in an uncoordinated manner are considered to be dead or moribund.\n100% efficacy means that all the fleas were dead or moribund. 0% efficacy means that no fleas were harmed."}, "Tetranychus urticae [6]": {"tested_on": "Tetranychus urticae", "test": "Tetranychus urticae spray test, OP-resistant (bean leaf discs)", "format": "in vivo", "settings": "100 g/ha, after 6 days", "protocol": "as §4\n(§5) After 6 days, the efficacy in % is determined."}, "Myzus persicae": {"tested_on": "Myzus persicae", "test": "Myzus persicae spray test", "format": "in vivo", "settings": "100 g/ha, Chinese cabbage leaf discs, after 6 days", "protocol": "Solvent: 78 parts by weight of acetone\nas §5"}}, "data": [{"molecule": "Cn1nc(C(F)(F)C(F)(F)F)c(C(F)(F)F)c1-c1cc(-c2ccc(Cl)c(C(=O)NC3CC3)c2)no1", "note": "[Iap-1, 2-chloro-N-cyclopropyl-5-{5-[1-methyl-3-(pentafluoroethyl)-4-(trifluoromethyl)-1H-pyrazol-5-yl]-1,2-oxazol-3-yl}benzamide]", "values": [{"measurement": "efficacy (kill in %)", "setting": "Lucilia cuprina", "result": 100, "unit": "%"}, {"measurement": "efficacy (kill in %)", "setting": "Musca domestica", "result": 100, "unit": "%"}, {"measurement": "efficacy (laying of fertile eggs)", "setting": "Boophilus microplus", "result": 100, "unit": "%"}, {"measurement": "efficacy (kill in %)", "setting": "Amblyomma hebraeum", "result": 100, "unit": "%"}, {"measurement": "efficacy", "setting": "Rhipicephalus sanguineus", "result": 100, "unit": "%"}, {"measurement": "efficacy (laying of fertile eggs)", "setting": "[1]", "result": 100, "unit": "%"}, {"measurement": "efficacy", "setting": "Spodoptera frugiperda", "result": 100, "unit": "%"}, {"measurement": "efficacy", "setting": "Phaedon cochleariae", "result": 100, "unit": "%"}, {"measurement": "chromatographic logP", "setting": "[2]", "result": 4.06}, {"measurement": "efficacy (kill in %)", "setting": "Ctenocephalides felis [3]", "result": 100, "unit": "%"}, {"measurement": "efficacy", "setting": "Tetranychus urticae [4]", "result": 100, "unit": "%"}, {"measurement": "efficacy", "setting": "Ctenocephalides felis [5]", "result": 100, "unit": "%"}]}, {"molecule": "Cn1nc(C(F)(F)C(F)(F)F)c(C(F)(F)F)c1-c1csc(-c2ccc(Cl)c(C(=O)NC3CC3)c2)c1", "note": "[Iaf-1]", "values": [{"measurement": "efficacy (kill in %)", "setting": "Lucilia cuprina", "result": 100, "unit": "%"}, {"measurement": "efficacy", "setting": "Tetranychus urticae [6]", "result": 100, "unit": "%"}, {"measurement": "efficacy (laying of fertile eggs)", "setting": "Boophilus microplus", "result": 100, "unit": "%"}, {"measurement": "efficacy", "setting": "Myzus persicae", "result": 90, "unit": "%"}, {"measurement": "efficacy (kill in %)", "setting": "Amblyomma hebraeum", "result": 100, "unit": "%"}, {"measurement": "efficacy", "setting": "Rhipicephalus sanguineus", "result": 100, "unit": "%"}, {"measurement": "efficacy (laying of fertile eggs)", "setting": "[1]", "result": 100, "unit": "%"}, {"measurement": "efficacy", "setting": "Spodoptera frugiperda", "result": 100, "unit": "%"}, {"measurement": "efficacy", "setting": "Phaedon cochleariae", "result": 100, "unit": "%"}, {"measurement": "logP", "setting": "[2]", "result": 4.31}, {"measurement": "efficacy (kill in %)", "setting": "Ctenocephalides felis [3]", "result": 100, "unit": "%"}, {"measurement": "efficacy", "setting": "Ctenocephalides felis [5]", "result": 100, "unit": "%"}]}, {"molecule": "Cn1nc(C(F)(F)C(F)(F)F)c(C(F)(F)F)c1-c1coc(-c2ccc(Cl)c(C(=O)NC3(C#N)CC3)c2)c1", "note": "[Iac-1, 2-chloro-N-(1-cyanocyclopropyl)-5-{4-[1-methyl-3-(pentafluoroethyl)-4-(trifluoromethyl)-1H-pyrazol-5-yl]-2-furyl}benzamide]", "values": [{"measurement": "efficacy (kill in %)", "setting": "Lucilia cuprina", "result": 100, "unit": "%"}, {"measurement": "efficacy", "setting": "Tetranychus urticae [6]", "result": 100, "unit": "%"}, {"measurement": "efficacy (kill in %)", "setting": "Musca domestica", "result": 100, "unit": "%"}, {"measurement": "efficacy (laying of fertile eggs)", "setting": "Boophilus microplus", "result": 100, "unit": "%"}, {"measurement": "efficacy (kill in %)", "setting": "Amblyomma hebraeum", "result": 100, "unit": "%"}, {"measurement": "efficacy (laying of fertile eggs)", "setting": "[1]", "result": 100, "unit": "%"}, {"measurement": "efficacy", "setting": "Spodoptera frugiperda", "result": 100, "unit": "%"}, {"measurement": "efficacy", "setting": "Phaedon cochleariae", "result": 100, "unit": "%"}, {"measurement": "chromatographic logP", "setting": "[2]", "result": 4.02}, {"measurement": "efficacy (kill in %)", "setting": "Ctenocephalides felis [3]", "result": 100, "unit": "%"}, {"measurement": "efficacy", "setting": "Ctenocephalides felis [5]", "result": 100, "unit": "%"}]}, {"molecule": "Cn1nc(C(F)(F)C(F)(F)F)c(C(F)(F)F)c1-c1coc(-c2ccc(Cl)c(C(=O)NC3CC3)c2)c1", "note": "[Iac-3]", "values": [{"measurement": "efficacy (kill in %)", "setting": "Lucilia cuprina", "result": 100, "unit": "%"}, {"measurement": "efficacy", "setting": "Tetranychus urticae [6]", "result": 100, "unit": "%"}, {"measurement": "efficacy (kill in %)", "setting": "Musca domestica", "result": 100, "unit": "%"}, {"measurement": "efficacy (laying of fertile eggs)", "setting": "Boophilus microplus", "result": 100, "unit": "%"}, {"measurement": "efficacy (kill in %)", "setting": "Amblyomma hebraeum", "result": 100, "unit": "%"}, {"measurement": "efficacy (laying of fertile eggs)", "setting": "[1]", "result": 100, "unit": "%"}, {"measurement": "efficacy", "setting": "Spodoptera frugiperda", "result": 100, "unit": "%"}, {"measurement": "efficacy", "setting": "Phaedon cochleariae", "result": 100, "unit": "%"}, {"measurement": "logP", "setting": "[2]", "result": 4.08}, {"measurement": "efficacy (kill in %)", "setting": "Ctenocephalides felis [3]", "result": 100, "unit": "%"}]}]}
